Where two headings read alike, the source gives them in different places.
How the values were obtained:
NMDAR = conditions: cited from earlier work
human P2X7 receptor = target: T1, human P2X7 receptor (Homo sapiens, UniProt Q99572); assay: BzATP-induced ethidium bromide uptake (dye uptake) in hP2X7-expressing HEK293 cells; format: cell-based; conditions: for inhibition at 1 µM / inhibition at 10 µM: P2X7, relative to maximum ethidium bromide uptake stimulated by BzATP 6 µM; for inhibition at 1 µM: at 1 μM (right value); for inhibition at 10 µM: at 10 µM (left value); for IC50: ethidium bromide accumulation stimulated by BzATP 6 µM, hP2X7-expressing HEK293 cells, from concentration-response curves
T1 construct: expressed in transfected cells; host or cells: HEK293
T1 sequence (Q99572 1-595): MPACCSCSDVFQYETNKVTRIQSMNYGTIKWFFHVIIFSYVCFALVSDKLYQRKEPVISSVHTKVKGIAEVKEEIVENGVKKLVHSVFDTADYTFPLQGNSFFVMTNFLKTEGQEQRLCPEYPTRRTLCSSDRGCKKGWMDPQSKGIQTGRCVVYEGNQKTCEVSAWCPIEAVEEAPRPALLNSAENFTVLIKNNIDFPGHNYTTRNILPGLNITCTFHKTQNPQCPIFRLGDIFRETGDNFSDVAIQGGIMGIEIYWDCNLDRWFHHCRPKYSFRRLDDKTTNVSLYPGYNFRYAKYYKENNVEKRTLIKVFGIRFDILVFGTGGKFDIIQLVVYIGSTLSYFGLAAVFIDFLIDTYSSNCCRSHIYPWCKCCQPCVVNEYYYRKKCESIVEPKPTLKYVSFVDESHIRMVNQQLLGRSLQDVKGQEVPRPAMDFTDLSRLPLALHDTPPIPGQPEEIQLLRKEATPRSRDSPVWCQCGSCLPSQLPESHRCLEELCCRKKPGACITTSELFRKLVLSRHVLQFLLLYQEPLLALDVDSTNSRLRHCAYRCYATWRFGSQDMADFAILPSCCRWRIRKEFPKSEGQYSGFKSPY
Method: All new compounds were evaluated for their antagonistic effects on 2’(3’)-O-(4-benzoylbenzoyl)-ATP (BzATP)-induced ethidium bromide uptake in human embryonic kidney 293 (HEK 293) cells, stably expressing the human P2X7 receptor, using P2X7 receptor antagonist AZD9056—AstraZeneca’s clinical drug candidate [46]—as a positive control. […] However, taking into account that we wanted to design a compound endowed with low micromolar inhibitory potencies against both the P2X7 and NMDA receptors, compound 9g suited our purpose.
HEK293 cells stably expressing the P2X7 receptor were maintained in Dulbecco's modified Eagle's medium (DMEM) supplemented with 10% fetal bovine serum (FBS), 2 mM L-glutamine, and antibiotics (50 U/mL penicillin and […] streptomycin) in a humidified 5% CO2 atmosphere at 37 °C. We used Lipofectamine as a transfection reagent with a pcDNA3.1 vector-based plasmid harbouring hP2X7R (Invitrogen, Waltham, MA, USA). After diluting to 2.5 × 10^6 cells/mL, a buffer composed of 10 mM HEPES, 5 mM N-methyl-D-glutamine, 5.6 mM KCl, 10 mM D-glucose, and 0.5 mM CaCl2 (pH 7.4), supplemented with either 280 mM sucrose or 140 mM NaCl and an 80 μL aliquot, was added to each well of 96-well culture plates. The test compounds and 2(3’)-O-(4-benzoylbenzoyl)-ATP (BzATP) were then added, and the cells were incubated for 2 h in a humidified 5% CO2 atmosphere at 37 °C. After incubation, a Bio-Tek FL600 fluorescence plate reader (Winooski, VT, USA) was used to measure the […] at an excitation wavelength of 530 nm and an emission wavelength of 590 nm. The inhibition (percent) of ethidium ion uptake was expressed as a relative value of the maximum accumulation when stimulated with BzATP only. To calculate IC50 values, we calculated a series of dose–response data using nonlinear regression analysis (i.e., percentage accumulation of ethidium bromide vs compound concentration). The concentration of ethidium bromide was 0.1 mM.

NMDA receptors = assay: Inhibition of NMDA-evoked increase in intracellular calcium in rat cultured cerebellar granule neurons; format: cell-based; conditions: for % inhibition: relative to maximum intracellular calcium stimulated by 100 µM NMDA with 10 µM glycine
Method: Additionally, to evaluate whether the synthesized compounds were able to antagonize the NMDA receptors, we measured their effects on the increase in intracellular calcium evoked by NMDA (100 μM, in the presence of 10 μM of glycine) on rat-cultured cerebellar granule neurons.
The functional assay of antagonist activity at the NMDA receptors was performed using primary cultures of rat cerebellar granule neurons that were prepared according to established protocols. Cells were grown on 10 mm poly-L-lysine coated glass cover slips, and used for the experiments after 6–9 days in vitro. Cells were loaded with 6 µM Fura-2 AM (ThermoFisher Scientific-Molecular Probes) for 30 min. Afterwards, the coverslip was mounted on a quartz cuvette containing a Locke-Hepes buffer using a special holder. Measurements were performed using a PerkinElmer LS-55 fluorescence spectrometer (Waltham, MA, USA) equipped with a fast-filter accessory, under mild agitation and at 37 °C. Analysis of each sample was recorded in real time for 1600 s. After stimulation with NMDA (100 µM, in the presence of 10 µM glycine), increasing cumulative concentrations of the compound to be tested were added. The percentages of inhibition at every tested concentration were analyzed using a non-linear regression curve fitting analysis by using the software GraphPad Prism 5.0 (GraphPad Software Inc., La Jolla, CA, USA).
Table S1. NMDA antagonist activity in rat cerebellar granule cells. […]
aPercentage inhibition values at 100 µM (left) and 300 μM (right) were expressed as percentages, relative to maximum intracellular calcium concentration stimulated by 100 µM NMDA in the presence of 10 µM of glycine. All experiments were repeated at least three times. bIC50 value was obtained from concentration response curves.

hP2X7 [1] = system: hP2X7; parameters: method as in PMID 18438986; conditions: read-out: P2X7R antagonist activity IC50; cited from earlier work
hP2X7 [2] = system: hP2X7; parameters: method as in PMID 22400713; conditions: read-out: P2X7R antagonist IC50; cited from earlier work

SMILES	melting point [°C]	inhibition at 1 µM (human P2X7 receptor) [%]	inhibition at 10 µM (human P2X7 receptor) [%]	% inhibition (NMDA receptors; at 100 µM (left value)) [%]	% inhibition (NMDA receptors; at 300 μM (right value)) [%]	other results
NC12CC3CC(CC(C3)C1)C2 [amantadine]						IC50 (NMDAR; amantadine, read-out: NMDAR antagonist IC50): 92 ± 29 µM
NC12CC3CC(C1)CC(C(=O)NNc1cccc(Cl)c1Cl)(C3)C2 [Compound 9c, 3-Amino-N'-(2,3-dichlorophenyl)adamantane-1-carbohydrazide]	215 to 219	17	42	23	30	
NC12CC3CC(C1)CC(C(=O)NNc1cccc(Cl)c1F)(C3)C2 [Compound 9f, 3-Amino-N'-(3-chloro-2-fluorophenyl)adamantane-1-carbohydrazide]	200 to 202	17	15	11	18	
NC12CC3CC(C1)CC(C(=O)NNc1c(Cl)cncc1Cl)(C3)C2 [Compound 9e, 3-Amino-N'-(3,5-dichloropyridin-4-yl)adamantane-1-carbohydrazide]	191 to 192	27	53	6	16	
O=C(NNc1ccccc1Cl)C12CC3CC(CC(C3)C1)C2 [Compound 1a]						IC50 (hP2X7 [1]): 0.0116 ± 0.002 µM
CC12CC3CC(C)(C1)CC(N)(C3)C2 [memantine]						fold more potent as an NMDA inhibitor than amantadine (NMDAR): 60 fold
NC12CC3CC(C1)CC(C(=O)NCc1ccccc1Cl)(C3)C2 [Compound 2, 3-Amino-N-(2-chlorobenzyl)adamantane-1-carboxamide]	186 to 189			18	30	
CC12CC3(C)CC(N)(C1)CC(C(=O)NNc1ccccc1Cl)(C2)C3 [Compound 15b, 3-Amino-N'-(2-chlorophenyl)-5,7-dimethyladamantane-1-carbohydrazide]	280 to 282			7	8	IC50 (human P2X7 receptor): 16.1 ± 1.6 µM; NMDA receptor inhibition (in words) (NMDA receptors; rat cerebellar granule neurons): unable to significantly inhibit the NMDA receptor even at millimolar concentrations
NC12CC3CC(C1)CC(C(=O)NNc1ccccc1C(F)(F)F)(C3)C2 [Compound 9a, 3-Amino-N'-[2-(trifluoromethyl)phenyl]adamantane-1-carbohydrazide]	213 to 216	37	48	5	14	
O=C(NNc1ccccc1Cl)C12CC3CC(CC(O)(C3)C1)C2 [Compound 1b]						IC50 (hP2X7 [1]): 0.275 ± 0.05 µM
CC12CC3(C)CC(N)(C1)CC(C(=O)NNc1c(Cl)cncc1Cl)(C2)C3 [Compound 15a, 3-Amino-N'-(3,5-dichloropyridin-4-yl)-5,7-dimethyladamantane-1-carbohydrazide]	300 to 302			20	31	IC50 (human P2X7 receptor): 9.9 ± 0.7 µM; NMDA receptor inhibition (in words) (NMDA receptors; rat cerebellar granule neurons): unable to significantly inhibit the NMDA receptor even at millimolar concentrations
NC12CC3CC(C1)CC(C(=O)NNc1c(Cl)cccc1Cl)(C3)C2 [Compound 9b, 3-Amino-N'-(2,6-dichlorophenyl)adamantane-1-carbohydrazide]	153 to 156	16	23	17	38	
NC12CC3CC(C1)CC(C(=O)NNc1ccccc1Cl)(C3)C2 [Compound 9g, 3-Amino-N'-(2-chlorophenyl)adamantane-1-carbohydrazide]	220 to 222					IC50 (human P2X7 receptor): 6 ± 0.6 µM; IC50 (NMDA receptors; NMDA 100 μM with 10 μM glycine, rat cerebellar granule neurons, read-out: IC50 (NMDA receptor)): 468 ± 23 µM; NMDA receptor inhibition (in words) (NMDA receptors; rat cerebellar granule neurons): some activity as an NMDA receptor antagonist
CC12CC3CC(C)(C1)CC(C(=O)NNc1c(Cl)cncc1Cl)(C3)C2 [Compound 3]						IC50 (hP2X7 [2]): 0.013 ± 0.001 µM
NC12CC3CC(C1)CC(C(=O)NNc1ccc(C(F)(F)F)cc1Cl)(C3)C2 [Compound 9d, 3-Amino-N'-[2-chloro-4-(trifluoromethyl)phenyl]adamantane-1-carbohydrazide]	185 to 186	21	24	20		
O=C(NCC12CC3CC(CC(C3)C1)C2)c1cc(CCCNCCCO)ccc1Cl [AZD9056, reference compound]						IC50 (human P2X7 receptor): 0.0041 ± 0.0007 µM

From publication PMC6017257, “Towards a Novel Class of Multitarget-Directed Ligands: Dual P2X7–NMDA Receptor Antagonists” (Molecules : A Journal of Synthetic Chemistry and Natural …, 2018)
